Here are results for 11 molecules from patent publication US5776929A, “Benzodiazepine derivative” (Shionogi & Co., Ltd., priority 1993, dated 1998).

Where only a bound is given, the exact number is not on record here.

As usually defined, the IC50 is the concentration at which inhibition is half-maximal.

In one assay the target is T1, CCK-B receptor (Mus musculus, UniProt P56481).
T1 construct: crude membrane specimen from mouse cerebral cortex; from tissue; host or cells: cerebral cortex of male ddY mice, crude membranes
T1 sequence (P56481 1-453): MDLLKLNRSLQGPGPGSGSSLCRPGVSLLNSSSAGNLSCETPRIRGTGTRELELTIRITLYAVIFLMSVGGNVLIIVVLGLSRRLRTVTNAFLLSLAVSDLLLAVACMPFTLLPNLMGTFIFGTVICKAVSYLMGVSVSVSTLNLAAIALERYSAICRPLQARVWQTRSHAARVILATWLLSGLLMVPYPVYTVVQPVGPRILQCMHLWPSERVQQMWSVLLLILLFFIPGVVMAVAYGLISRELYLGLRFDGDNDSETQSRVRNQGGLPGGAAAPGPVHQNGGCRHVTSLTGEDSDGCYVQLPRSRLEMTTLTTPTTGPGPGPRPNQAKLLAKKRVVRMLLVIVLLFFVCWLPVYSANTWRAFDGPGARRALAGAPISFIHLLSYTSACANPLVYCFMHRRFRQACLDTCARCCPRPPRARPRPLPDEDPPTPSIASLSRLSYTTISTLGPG
Kind of assay: CCK-B receptor antagonism, displacement of [3H]CCK-8, cerebral cortex crude membrane. The note with it: mouse cerebral cortex membrane, [3H]CCK-8 1 nM, 90 min, 25 °C; read-out: Receptor CCK-B (IC50). The format is binding, mouse (male ddY). The protocol: (§1) Male Hartley guinea pig (450-600 g) or male ddY mouse (24-30 g) were used.
(§2) (2) CCK-A Receptor Antagonism and CCK-B Receptor Antagonism
(§3) Preparation of CCK receptor preparations
(§4) Male ddY mice (24 to 30 g) were killed by decapitation and cerebral cortex (CCK-B) and pancreas (CCK-A) were extracted immediately. Each of cerebral cortex and pancreas was mixed with 50 mM Tris-HCl buffer (pH 7.4) and homogenized with a teflon-glass homogenizer and polytron homogenizer to obtain crude membrane specimens.
(§5) Preparation of test compounds and procedures of displacing assay A 1M solution of a compound to be tested in DMSO is prepared and diluted with 50% DMSO to obtain a ten-fold dilution series.
(§6) The reaction is initiated by the addition of crude membrane specimen to solutions of different concentration each containing [^3 H]CCk-8 (final concentration, 1 nM). The mixture is incubated for 90 min at 25° C., filtered through glass filter with aspiration and washed with a cooled 50 mM Tris buffer. After the addition of Aquazol-2 cocktail the radioactivity is counted. The same procedure was repeated using 50% DMSO solution or Ceruletide (final concentration, 1 μM) instead of a solution of test compound so as to obtain the control value regarding total binding or the value regarding non-specific binding, respectively. […]
(§7) specific binding of control=total binding (cpm)-non-specific binding (cpm); and specific binding of test compound=[…]-non-specific binding (cpm).
(In general: Displacement assays read how much labelled ligand stays bound in the presence of the test substance.)

The target of another assay is T2, gastrin receptor (Cavia porcellus, UniProt H0VZC5).
T2 construct: stomach was extracted from each animal immediately, from which gastric glands were prepared; from tissue; host or cells: gastric (fundic) glands of male Hartley guinea pigs
T2 sequence (H0VZC5 1-426): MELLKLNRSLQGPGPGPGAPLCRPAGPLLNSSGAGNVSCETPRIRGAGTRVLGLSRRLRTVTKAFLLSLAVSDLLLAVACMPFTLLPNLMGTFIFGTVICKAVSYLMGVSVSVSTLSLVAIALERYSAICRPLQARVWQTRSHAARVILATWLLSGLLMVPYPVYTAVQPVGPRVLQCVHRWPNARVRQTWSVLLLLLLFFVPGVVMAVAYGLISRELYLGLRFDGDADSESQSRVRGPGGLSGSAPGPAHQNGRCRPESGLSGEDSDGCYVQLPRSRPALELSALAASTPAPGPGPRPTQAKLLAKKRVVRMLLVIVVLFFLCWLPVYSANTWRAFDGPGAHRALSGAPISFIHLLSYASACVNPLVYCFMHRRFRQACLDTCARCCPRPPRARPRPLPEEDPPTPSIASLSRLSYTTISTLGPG
Kind of assay: Gastrin receptor antagonism, displacement of 125I-labeled gastrin, gastric (fundic) gland cells. The class given is binding, guinea pig (male Hartley). The note with it: guinea pig gastric glands, 125I-gastrin 0.2 nM, 30 min, 25 °C; read-out: Receptor Gastrin (IC50). The protocol: as §1
(1) Gastrin Receptor Antagonism
Preparation of gastric glands:
Male Hartley guinea pigs (450-600 g) were killed by bleeding and stomach was extracted from each animal immediately, from which gastric glands were prepared.
Preparation of test compounds and procedures of displacing assay
A 1M solution of a compound to be tested in DMSO is prepared and diluted with 50% DMSO to obtain a ten-fold dilution series.
The mixture is incubated for 30 min at 25° C., centrifuged at 2000 rpm for 5 min and the supernatant is removed by aspiration. To the pellet is added ice-cooled incubation buffer and mixed gently, followed by an immediate centrifugation and removal of the supernatant by aspiration. The radioactivity is counted on gamma counter. The same procedure was repeated using 50% DMSO solution or human gastrin I (final concentration, 2 μM) instead of a solution of test compound so as to obtain the control value regarding total binding or the value regarding non-specific binding, respectively. […]
as §7

A further assay addresses T3, CCK-A receptor (Mus musculus, UniProt O08786).
T3 construct: crude membrane specimen from mouse pancreas; from tissue; host or cells: pancreas of male ddY mice, crude membranes
T3 sequence (O08786 1-436): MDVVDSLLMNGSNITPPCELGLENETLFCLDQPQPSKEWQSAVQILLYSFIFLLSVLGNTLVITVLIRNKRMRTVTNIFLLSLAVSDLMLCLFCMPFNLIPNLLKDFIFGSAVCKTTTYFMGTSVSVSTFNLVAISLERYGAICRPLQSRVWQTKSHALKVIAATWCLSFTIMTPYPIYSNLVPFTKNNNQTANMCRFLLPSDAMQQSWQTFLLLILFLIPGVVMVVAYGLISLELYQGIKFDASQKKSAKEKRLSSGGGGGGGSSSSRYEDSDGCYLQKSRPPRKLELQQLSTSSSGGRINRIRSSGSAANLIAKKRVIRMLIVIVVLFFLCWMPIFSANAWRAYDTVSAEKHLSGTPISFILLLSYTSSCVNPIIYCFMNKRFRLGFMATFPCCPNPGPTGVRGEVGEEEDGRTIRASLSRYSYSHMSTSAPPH
Kind of assay: CCK-A receptor antagonism, displacement of [3H]CCK-8, pancreas crude membrane. The note with it: mouse pancreas membrane, [3H]CCK-8 1 nM, 90 min, 25 °C; read-out: Receptor CCK-A (IC50). The format is binding, mouse (male ddY). As to the method: as §1, §2, §3, §4, §5, §6, §7

In a further assay the test system is gastric acid secretion. Kind of assay: Inhibitory effect on gastric acid secretion by Schild method (pentagastrin-stimulated). The format is in vivo, rat (male Sprague Dawley). The following applies: intraduodenal, rat, read-out: Inhibitory Effect on acid secretion (Schild method), percent inhibition. The text has this: Evaluation of Inhibitory Effect on Gastric Acid Secretion by Schild Method
Twenty four hour starved (ad libitum for water) male Sprague Dawley rats (8-week-old) were anesthetized with urethane (1.5 g/kg S.C.) and kept breathing with esophagus cannulas. After laparotomy, esophagus cannulas were inserted orally up to proventriculus and ligated around gastric cardiac. Perfusion cannulas were inserted from duodenum into stomach and ligated around pylorus. Another cannulas were placed into duodenum and ligated for administration of drug. After sutra of abdomen, stomach was perfused via the esophagus cannulas with physiological saline (37° C.) while collecting perfusate for a 15 min interval. The perfusate was subjected to titration with 0.001 N NaOH solution to determine the acidity. When the basal acid secretion became stable, pentagastrin ([…]) was administered in a sustained manner via common carotid vein for about 90 min until the acid secretion reached approximately the highest level, when a test compound (0.5% M.C. suspension) was administered into duodenum through cannulas. The perfusate was collected for a 15 min interval to monitor the acid secretion for 90 min. The percent inhibition was calculated as follows:
Percent inhibition (%)=100×(A-B)/(C-B)
A: the minimum value of total acidity observed after the administration of a test compound;
B: the total acidity obtained immediately before the administration of pentagastrin; and
C: the total acidity obtained immediately before the administration of a test compound.

With `CCOC(=O)CSc1cccc(NC(=O)NC2C(=O)N(CC(=O)C3CC3)c3ccccc3N(CC(=O)C3CC3)C2=O)c1` [Compound 17-viii, 1,5-Bis-(cyclopropylcarbonylmethyl)-3-(N'-(m-(carboethoxymethylthio)phenyl)ureido)-1H-1,5-benzodiazepine-2,4(3H,5H)-dione], the IC50 was determined as 6 nM on CCK-B receptor, 2 nM on gastrin receptor and 460 nM on CCK-A receptor. For the same molecule, in the assay with gastric acid secretion, the inhibition in vivo at 0.3 mg/kg turned out to be 76%.

As for `O=C(O)Cc1cccc(NC(=O)NC2C(=O)N(CC(=O)C3CC3)c3ccccc3N(CC(=O)C3CC3)C2=O)c1` [Compound 17-xiii, 1,5-Bis-(cyclopropylcarbonylmethyl)-3-(N'-(m-(carbomethyl)phenyl)ureido)-1H-1,5-benzodiazepine-2,4(3H,5H)-dione], the IC50 on CCK-B receptor is 7 nM; at gastrin receptor it was 2 nM; on CCK-A receptor it was 4800 nM. Besides, the inhibition in vivo at 0.3 mg/kg with gastric acid secretion was 21%.

`CC(C)S(=O)(=O)NC(=O)c1cccc(NC(=O)NC2C(=O)N(CC(=O)C3CC3)c3ccccc3N(CC(=O)C3CC3)C2=O)c1` [Compound 17-iii, 1,5-Bis-(cyclopropylcarbonylmethyl)-3-(N'-(m-(isopropylsulfonylaminocarbonyl)phenyl)ureido)-1H-1,5-benzodiazepine-2,4(3H,5H)-dione]: the IC50 on CCK-B receptor came out at 190 nM; on gastrin receptor it was 6 nM; at CCK-A receptor, 11500 nM. In the assay on gastric acid secretion, the inhibition in vivo at 0.3 mg/kg worked out at 47%.

Consider `O=C(Nc1cccc(-c2nnn[nH]2)c1)NC1C(=O)N(CC(=O)N2CCCC2)c2ccccc2N(CC(=O)N2CCCC2)C1=O` [Compound 18-iv], for which the IC50 on CCK-B receptor amounted to 38 nM; on gastrin receptor, 4 nM; on CCK-A receptor, 3600 nM. The inhibition in vivo at 0.3 mg/kg with gastric acid secretion worked out at 65%.

`O=C(Nc1cccc(-c2nnn[nH]2)c1)NC1C(=O)N(CC(=O)C2CC2)c2ccccc2N(CC(=O)C2CC2)C1=O` [Compound 17-iv, 1,5-Bis-(cyclopropylcarbonylmethyl)-3-(N'-(m-(tetrazoyl)phenyl)ureido)-1H-1,5-benzodiazepine-2,4(3H,5H)-dione]: the IC50 on CCK-B receptor worked out at 8 nM; at gastrin receptor, 2 nM; at CCK-A receptor, 2900 nM. Moreover, the inhibition in vivo at 0.1 mg/kg in the assay on gastric acid secretion (0.1 mg/kg) turned out to be 44%.

For the molecule `CCOC(=O)c1cccc(NC(=O)NC2C(=O)N(CC(=O)N3CCCC3)c3ccccc3N(CC(=O)N3CCCC3)C2=O)c1` [Compound 18-i, 1,5-Bis-(pyrrolidinocarbonylmethyl)-3-(N'-(m-(carboethoxy)phenyl)ureido)-1H-1,5-benzodiazepine-2,4(3H,5H)-dione], the IC50 was determined as 440 nM on CCK-B receptor, 25 nM on gastrin receptor and 3200 nM on CCK-A receptor.

For `O=C(O)CCCNC(=O)OCc1cccc(NC(=O)NC2C(=O)N(CC3CC3)c3ccccc3N(CC3CC3)C2=O)c1` [Compound 11o, 1,5-Bis-(cyclopropylmethyl)-3-(N'-(3-(3-(carboxy)propylcarbamoyloxymethyl)phenyl)ureido)-1H-1,5-benzodiazepine-2,4(3H,5H)-dione], the IC50 at CCK-B receptor came out at 36 nM; on gastrin receptor it was 18 nM; at CCK-A receptor, 1850 nM.

In the case of `COC(=O)CCCNC(=O)OCc1cccc(NC(=O)NC2C(=O)N(CC(=O)c3ccccc3C)c3ccccc3N(CC(=O)c3ccccc3C)C2=O)c1` [Compound 9d, 1,5-Bis-(o-methylphenacyl)-3-(N'-(3-(3-(carbomethoxy)propylcarbamoyloxymethyl)phenyl)ureido)-1H-1,5-benzodiazepine-2,4(3H,5H)-dione], the IC50 on CCK-B receptor is 11 nM; at gastrin receptor, 6 nM; at CCK-A receptor, < 100 nM.

On to `COC(=O)CCCNC(=O)OCc1cccc(NC(=O)NC2C(=O)N(CC(=O)C3CCCC3)c3ccccc3N(CC(=O)C3CCCC3)C2=O)c1` [Compound 9i, 1,5-Bis-(cyclopentylcarbonylmethyl)-3-(N'-(3-(3-(carbomethoxy)propylcarbamoyloxymethyl)phenyl)ureido)-1H-1,5-benzodiazepine-2,4(3H,5H)-dione], for which the results for the IC50 at CCK-B receptor, on gastrin receptor and on CCK-A receptor were 2 nM, 7 nM and 290 nM, respectively.

Turning to `COC(=O)CCCNC(=O)OCc1cccc(NC(=O)NC2C(=O)N(CC(=O)c3cccs3)c3ccccc3N(CC(=O)c3cccs3)C2=O)c1` [Compound 9g], the IC50 at CCK-B receptor stood at 7 nM; on gastrin receptor it was 3 nM; on CCK-A receptor, 420 nM.

Regarding `O=C(CN1C(=O)C(NC(=O)Nc2cccc(COC(=O)NCCCC(=O)OCc3ccccc3)c2)C(=O)N(CC(=O)NC2CC2)c2ccccc21)NC1CC1` [Compound 10c, 1,5-Bis-(cyclopropylcarbamoylmethyl)-3-(N'-(3-(3-(benzoyloxycarbonyl)propylcarbamoyloxymethyl)-phenyl)ureido)-1H-1,5-benzodiazepine-2,4 (3H,5H)-dione], the IC50 on CCK-B receptor was 380 nM; on gastrin receptor it was 64 nM; on CCK-A receptor, 2100 nM.
